Experiment: method code SF-AS, from Hansch, C., Leo, A., & Hoekman, D. (1995). Exploring QSAR: hydrophobic, electronic, and steric constants (Vol. 2). Washington, DC: American Chemical Society.
Details: not given

Row | SMILES | logP
1 | CCc1cccc2c1OCCOCCOCCOCCOCCO2 | 0.98
2 | CC(=O)c1ccc2c(c1)OCCOCCOCCOCCOCCO2 | -0.05

Same assay, conditions: pH 2.1

Row | SMILES | logD
3 | O=C(O)C[N+]1([O-])CCN(C(=O)Cn2c(=O)sc3ccc(Cl)cc32)CC1 | 0.21

Same assay, conditions: pH 7.2

Row | SMILES | logD
4 | N#CC(C#N)=NNc1ccccc1Br | 3.11
5 | N#CC(C#N)=NNc1cccc(Cl)c1Cl | 3.85
6 | N#CC(C#N)=NNc1ccccc1C(F)(F)F | 4.2
7 | Cc1ccccc1NN=C(C#N)C#N | 2.38

Same assay, conditions: pH 7.4

Row | SMILES | logD
8 | O=C(NP(=O)(N1CC1)N1CC1)c1ccccc1I | 1.05

Experiment: not given
Details: not given

Row | SMILES | logP
9 | O=C(COC(=O)c1ccccc1)NC1CCCCC1 | 2.81
10 | CC(Cl)[N+](=O)[O-] (centres undefined) | 1.1
11 | O=C(O)c1ccc2c(c1)OCCOCCOCCOCCOCCO2 | -0.28
12 | CNC(=O)c1ccco1 | 0.23
13 | Nc1nc2cc(Cl)ccc2[nH]1 | 1.88
14 | O=C(O)Cc1ccccc1Nc1c(F)cccc1Cl | 3.8
15 | C/C=C/C(C)=O | 0.52
16 | CCCOCCN(C(=O)CCl)c1c(CC)cccc1CC | 4.08
17 | CC(C)C(=O)C(C)C | 1.86
18 | CC1(C)CCC(C)(C)O1 | 2.06
19 | C=CCSc1ccccc1 | 3.51
20 | N#CNc1ccccc1 | 1.87
21 | O=C1C=CC(=O)N1c1ccccc1 | 1.09
22 | CS(=O)(=O)CC#N | -1.42
23 | CCSC | 1.54
24 | CCC1=C(N2CC2)C(=O)C(C)=C(N2CC2)C1=O | 1.35
25 | O=C1CC(c2ccc(C(F)(F)F)cc2)Cc2c1c(=O)c1cc(Cl)ccc1n2O (centres undefined) | 3.46
26 | Cc1[nH]oc(=O)c1/N=N/c1ccccc1Cl | 2.6
27 | CC(C)Nc1nc(N)nc(SC(F)F)n1 | 2.68
28 | ClC(Cl)C(Cl)(Cl)Cl | 3.22
29 | FC(F)(F)CCc1ccccc1 | 3.31
30 | COc1ccc2cc(C(C)C(=O)OCC(=O)N(C)CC(N)=O)ccc2c1 (centres undefined) | 1.37
31 | CCNC(=O)C1C2C=CC(C2)C1C(=O)NCC (centres undefined) | 0.99
32 | CN(C)O | -1.15

Row | SMILES | logP
33 | FC1(F)C(F)(F)C(F)(F)C(F)(F)C(F)(F)C1(F)F | 2.91
34 | COC(=O)CC(C)C | 1.82
35 | CNC(=S)N(C)C | 0.1
36 | O=C1C=C(N2CC=CC2)C(=O)c2ccccc21 | 2.85
37 | CCOC(=O)COC(=O)c1cc(Oc2ccc(C(F)(F)F)cc2Cl)ccc1[N+](=O)[O-] | 3.65
38 | C1CCCCCC1 | 4
39 | Oc1ccc(C(F)(F)F)cc1 | 2.82
40 | Cn1c(N)nc2ccc(Cl)cc21 | 2.01
41 | CS(=O)(=O)N(c1ccccc1[N+](=O)[O-])S(C)(=O)=O | 0.81
42 | CC(C)C(C)C | 3.42
43 | NC(=O)OCCC1=C(N2CC2)C(=O)C(Br)=C(N2CC2)C1=O | 0.68
44 | NC(=S)N1CCCCC1 | 0.73
45 | O=[N+]([O-])c1ccccc1CO | 1.24
46 | FCC1CO1 (centres undefined) | -0.16
47 | CC(=O)C(C)(C)C | 1.2
48 | Nc1ccccc1S(N)(=O)=O | 0.22
49 | C=CCOC(C)=O | 0.97
50 | O=C(CCn1ccnc1[N+](=O)[O-])NCCO | -1.08
51 | O/N=C\c1ccc(F)cc1 | 2.03
52 | CC(C)(C)Cl | 1.82
53 | CCC(C)N(C(=O)SCc1ccccc1)C(C)CC (centres undefined) | 4.4
54 | CN(C)C(=O)SCCCCOc1ccccc1 | 3.28
55 | CCOC(=O)Nc1cccc(OC(=O)Nc2ccccc2)c1 | 3.39
56 | C=CCOCC1CO1 (centres undefined) | 0.46

Row | SMILES | logP
57 | COc1cccc2ccccc12 | 3.63
58 | CCC(C(N)=O)(C(N)=O)c1ccccc1 | 0.13
59 | O=C(O)Cc1ccccc1Nc1c(F)cccc1F | 3.57
60 | [O-][n+]1ccccc1 | -1.2
61 | Cc1c(Cl)ccc(OC(C)C(=O)Nc2ccccc2)c1Cl (centres undefined) | 4.8
62 | N#C/C=C/C#N | -0.25
63 | CCOc1cccc(Cl)n1 | 2.55
64 | N#Cc1ccncc1C#N | 0.24
65 | c1ccc2c(c1)Oc1ccccc1S2 | 4.54
66 | NC1CC1 | 0.07
67 | CN(C)c1ccc2c(c1)C(=O)N(S(C)(=O)=O)C2=O | 1.65
68 | Fc1cc(F)c(F)c(F)c1F | 2.53
69 | C1=C\C=C/C=C\C=C/1 | 3.08
70 | COCC(O)Cn1cc([N+](=O)[O-])nn1 (centres undefined) | -0.36
71 | COc1ccc2cc([C@H](C)C(=O)OCC(=O)N(CCO)CCO)ccc2c1 | 1.7
72 | O=C(O)Cc1ccc(N2Cc3ccccc3C2=O)cc1 | 2.9
73 | c1ccc(-c2cnc(-c3ccccc3)o2)cc1 | 4.67
74 | COc1ccc([N+](=O)[O-])cn1 | 1.55
75 | COC(=O)Nc1c(C)cccc1C | 1.69
76 | Nc1ccc2c(c1)C(=O)N(O)C2=O | 0.16
77 | NS(=O)(=O)Cc1ccccc1 | 0.13
78 | CC(C(=O)O)c1ccc(N2C(=O)C3CCCCC3C2=O)cc1 (centres undefined) | 2.37
79 | Cc1cc(=O)cc(C)o1 | 0.1
80 | Cc1cc2ccccc2cn1 | 2.68

Same assay, conditions: pH 1.0

Row | SMILES | logD
81 | O=C(O)c1c2ccccc2cc2ccccc12 | 3.85
82 | CC1CC(C(=O)O)=C(C(=O)O)C(C)C1 (centres undefined) | 1.53
83 | CC(C)(CCC(=O)O)C(=O)O | 0.67
84 | O=C(O)c1ccccc1N1C(=O)CCC1=O | 1.55

Same assay, conditions: pH 5.0

Row | SMILES | logD
85 | CCOC(=O)CCl | 0.94

Same assay, conditions: pH 7.0

Row | SMILES | logD
86 | Clc1ccc(C2(Cn3cncn3)OCC3(CCC4OC4C3)CO2)c(Cl)c1 (centres undefined) | 1.87
87 | Nc1nc(=O)n([C@H]2CC[C@@H](CO)O2)cc1I | -0.31
88 | CC1(C)COC(Cn2cncn2)(c2ccc(-n3ccnc3)cc2Cl)OC1 | 2.26
89 | CCOC(=O)N[C@H]1CCc2cc(OC)c(OC)c(OC)c2-c2ccc(OC)c(=O)cc21 | 1.3
90 | CCCCN(CC)c1c([N+](=O)[O-])cc(C(F)(F)F)cc1[N+](=O)[O-] | 5.29

Same assay, conditions: pH 7.4

Row | SMILES | logD
91 | Clc1cccc2cccnc12 | 2.44
92 | c1csc(C23CCCN2CCO3)c1 (centres undefined) | 1.05
93 | O=C1Nc2ccccc2C1=O | 0.83
94 | CSc1ncc([N+](=O)[O-])n1C | 0.94
95 | CN1C(=O)CN=C(c2ccccc2C(F)(F)F)c2cc([N+](=O)[O-])ccc21 | 2.45
96 | ICCI | 2.71
97 | COC(=O)c1ccc(-c2ncc([N+](=O)[O-])n2C)cc1 | 1.63
98 | O=[N+]([O-])c1ncn(CC(F)(F)CO)n1 | -0.21
99 | C#CCn1ncc2cc([N+](=O)[O-])ccc21 | 0.52
100 | O=C(NC(F)(F)F)c1cccc2cccnc12 | 3.24
101 | Cc1cc(=O)[nH]c(=O)[nH]1 | -0.77
102 | CCOC(=S)NCCn1c([N+](=O)[O-])cnc1C | 1.5
103 | CC(C)Cn1c(=O)n(C)c(=O)c2[nH]c(CCN3CCN(C(c4ccc(F)cc4)c4ccc(F)cc4)CC3)nc21 | 4.16
104 | CCOc1cccc2cccnc12 | 2.25

Same assay, conditions: pH 9.0

Row | SMILES | logD
105 | Cc1c[nH]cn1 | 0.23

Same assay, conditions: pH 13.0

Row | SMILES | logD
106 | CC1(C)CCCC(C)(C)N1 | 2.15
107 | NCCCN | -1.43
108 | Cc1cc(Cc2cnc(N)nc2N)cc(C(C)C)c1N | 1.77
109 | C#CCN | -0.43
110 | NC(=O)COc1ccccc1Cc1nc(N)cc(N)n1 | -0.34
111 | COc1cccc(OC)c1Cc1cnc(N)nc1N | 1.7
112 | CCN(CC)CCN | 0.21

Experiment: not given
Details: not given
Remark: another data set of the same source

Row | SMILES | logP
113 | Cc1ccc2c(c1)C(N1CCN(CCO)CC1)CC2c1ccc(F)cc1 (centres undefined) | 3.57
114 | N=C1C=CC(=C(c2ccc(N)cc2)c2ccc(N)cc2)C=C1 | -0.21
115 | c1ccc(Cn2ncnn2)cc1 | 1.03
116 | OCCN1CCN(C2CC(c3ccc(F)cc3)c3ccccc32)CC1 (centres undefined) | 2.95
117 | CC1(C)CN(CCN2CCN(c3cccc(Cl)c3)C2=O)C1 | 3.91
118 | CCCN1CCCC1CNC(=O)c1cc(S(N)(=O)=O)ccc1OC (centres undefined) | 2.06
119 | OCCN1CCN(C2CC(c3ccc(F)cc3)c3ccc(F)cc32)CC1 (centres undefined) | 3.3
120 | O=C(O)Cc1nn(Cc2nc3cc(F)ccc3s2)c(=O)c2ccccc12 | 1.86
121 | Cc1cc2c(s1)Nc1ccc(F)cc1N=C2N1CCN(C)CC1 | 2.98
122 | O=C(O)Cc1nn(Cc2ccc(Br)cc2F)c(=O)c2ccccc12 | 2.68
123 | FC(F)(F)C(=NOCC1OCCO1)c1ccc(Cl)cc1 | 3.9
124 | COc1ccc(S(N)(=O)=O)cc1C(=O)NC1CC2CCCC1N2Cc1ccccc1 (centres undefined) | 2.88
125 | CC(=O)c1c(C)n(C)c2ccccc12 | 2.03
126 | c1ccc(Cn2cccc2)cc1 | 2.71
127 | COc1cc(Cc2cnc(N)nc2N)cc(Br)c1OC | 2.23
128 | C#CCNS(=O)(=O)c1ccc(OC)c(C(=O)NCC2CCCN2CC)c1 (centres undefined) | 2.42
129 | CC(C)=CC1C(C(=O)OCc2ccc(C)cc2C)C1(C)C (centres undefined) | 4.5
130 | OC1(c2ccc(Cl)cc2)CCN(CCCC2(c3ccc(F)cc3)OCCO2)CC1 | 3.84
131 | CCN1CCCC1CNC(=O)c1cc(NS(N)(=O)=O)ccc1OC (centres undefined) | 2.02

Row | SMILES | logP
132 | c1ccc(NCCCOc2cccc(CN3CCCCC3)c2)nc1 | 4.29
133 | CNc1nc(Cl)c(SC)c(N2CCN(C)CC2)n1 | 2.99
134 | CCN1CCCC1CNC(=O)c1cc(N(C)S(C)(=O)=O)c(Cl)cc1OC (centres undefined) | 2.62
135 | CN1C(C(=O)Nc2ccccn2)=C(O)c2sc(Cl)cc2S1(=O)=O | 2.62
136 | O=C1NCN(c2ccccc2)C12CCN(CCCC(c1ccc(F)cc1)c1ccc(F)cc1)CC2 | 5.86
137 | OCCN1CCN(CCCC2c3ccc(F)cc3Sc3ccc(C(F)(F)F)cc32)CC1 (centres undefined) | 4.47
138 | c1ccc(Cn2cnnn2)cc1 | 1.36
139 | CSc1ccc2c(c1)C(N1CCN(CCO)CC1)CC2c1ccc(F)cc1 (centres undefined) | 3.8
140 | C1=Cc2ccc3c4c(ccc(c24)C1)-c1ccccc1-3 | 5.78
141 | C#CC(C)(C)NS(=O)(=O)c1ccc(OC)c(C(=O)NCC2CCCN2CC)c1 (centres undefined) | 2.8
142 | O=C(O)Cc1c[nH]c2ccc(O)cc12 | 1.17
143 | CCN1CCC[C@H]1CNC(=O)c1cc(I)ccc1OC | 3.23
144 | O=c1[nH]c2ccccc2n1C1CCN(CCOc2ccccc2)CC1 | 4.18
145 | OCCC1CCN(CC/C=C2\c3ccc(F)cc3Sc3ccc(C(F)(F)F)cc32)CC1 | 4.09
146 | CCN1CCCC1CNC(=O)c1cc(NS(N)(=O)=O)c(Cl)cc1OC (centres undefined) | 2.66
147 | O=C1NC(=O)[C@@]2(CCOc3ccc(F)cc32)N1 | 0.78
148 | CCc1c(C)[nH]c2c1C(=O)C1CN(C)CCC1C2 (centres undefined) | 1.78
149 | CCN1CCCC1CNC(=O)c1cc(N(C)S(C)(=O)=O)ccc1OC (centres undefined) | 2.29

Source: the SangsterLogP compilation
